Like-named read-outs stand apart in the source and are kept apart here.
Experiments:
Assay type in all cases: cell-based
cervical cancer cells = experiment: Summary of cell viability, cervical cancer; details: 72 hours, summary for cervical cancer, read-out: Inhibitory effect, cervical cancer
Experimental: (§1) The cell numbers were counted and reseed as 2×10^6 in cell culture plate/flask. Then, the culture medium were added to a volume of 10 ml, and the cells were cultured for 2-3 days. Then, the cells were suspended for loading into 96-well plates. The number of cells was 3000 and the volume of the culture medium was 100 μl each well.
(§2) Removing the original culture medium from 96-well plate. Then add 100 μl of commercially drug at a concentration of 10 μM per well. After 72 hours, add the diluted WST-1 reagent to the well with 100 μl/well, and the diluted WST-1 reagent was acquired from the dilution of 9:1 medium and WST-1 stock reagent. Finally, the total volume of each well was 200 μl/well. Culture the 96-well plate at 37° C. for 30 to 90 minutes. Detecting and calculate the survival rate of each cancer cells with an ELISA reader at OD450 nm.
(§3) As a result in the experiments of the present invention.

[1] = tested on: bladder cancer cell line TSGH; experiment: WST-1 cell viability analysis, TSGH; details: 72 hours, read-out: viability (survival rate) of TSGH cells
Experimental: as §1, §2

[2] = tested on: Hep3B (hepatocellular carcinoma); experiment: WST-1 cell viability analysis, Hep3B; details: Homo sapiens
Experimental: as §1, §2

gastric cancer cells = experiment: Summary of cell viability, gastric cancer; details: 72 hours, summary over the gastric cancer cell lines, read-out: Inhibitory effect, gastric cancer
Experimental: as §1, §2, §3

[3] = tested on: bladder cancer cell line T24; experiment: WST-1 cell viability analysis, T24; details: Homo sapiens
Experimental: as §1
as §2, with “Culture the 96-well plate at 37° C. for 30 to 90 minutes.” left out

[4] = tested on: osteosarcoma cell line U2OS; experiment: WST-1 cell viability analysis, U2OS; details: Homo sapiens
Experimental: as §1, §2

[5] = WST-1 cell viability analysis, HEK293; details: human
Experimental: as §1, §2

CC1=C(C(=O)OC(C)C)C(c2cccc([N+](=O)[O-])c2)C(C(=O)OC2CN(C(c3ccccc3)c3ccccc3)C2)=C(N)N1 (centres unmarked) [Azelnidipine]
viability at 10 µM (cervical cancer cells): 87%
viability at 10 µM ([1]; run 0510-10 min): 151%
viability at 10 µM ([1]; run 0512-10 min): 117%
viability at 10 µM ([1]; run 0515-10 min): 72%
viability at 10 µM ([1]; run 0517-10 min): 120%
viability at 10 µM ([2]; 72 h, average of 4 tests, read-out: Average viability of Hep3B cells): 98.6%
viability at 10 µM ([2]; 72 hours, run 0612-20 min, read-out: viability (survival rate) of Hep3B cells): 114%
viability at 10 µM ([2]; 72 hours, run 0614-20 min, read-out: viability (survival rate) of Hep3B cells): 91.5%
viability at 10 µM ([2]; 72 hours, run 0616-20 min, read-out: viability (survival rate) of Hep3B cells): 97.9%
viability at 10 µM ([2]; 72 hours, run 0619-20 min, read-out: viability (survival rate) of Hep3B cells): 90.7%
viability at 10 µM (gastric cancer cells): 115%
viability at 10 µM ([3]; T-24, 10 μM, 72 hours, run 1-30 min, read-out: viability (survival rate) of T24 cells): 110%
viability at 10 µM ([3]; T-24, 10 μM, 72 hours, run 2-20 min, read-out: viability (survival rate) of T24 cells): 75.3%
viability at 10 µM ([3]; T-24, 10 μM, 72 hours, run 3-20 min, read-out: viability (survival rate) of T24 cells): 30.4%
viability at 10 µM ([3]; T-24, 10 μM, 72 hours, run 4-20 min, read-out: viability (survival rate) of T24 cells): 102%
viability at 10 µM ([3]; T-24, 72 h, 10 μM, average of 4 tests, read-out: average viability of T24 cells): 79.5%
viability at 10 µM ([4]; 72 h, summary (U2OS), read-out: Inhibitory effect, osteosarcoma): 69.4%
viability at 10 µM ([4]; 72 hours, run 6-26-10 min, read-out: viability (survival rate) of U2OS cells): 53.3%
viability at 10 µM ([4]; 72 hours, run 6-28-10 min, read-out: viability (survival rate) of U2OS cells): 78.3%
viability at 10 µM ([4]; 72 hours, run 6-30-10 min, read-out: viability (survival rate) of U2OS cells): 84.8%
viability at 10 µM ([4]; 72 hours, run 7-3-10 min, read-out: viability (survival rate) of U2OS cells): 61.2%
viability at 72 h, 10 µM ([5]; HEK293 cells (normal kidney cell line), summary (HEK293), read-out: Inhibitory effect, Normal cell: Kidney cell): 94.2%
viability at 72 h, 10 µM ([5]; HEK293 normal kidney cells, average of 4 tests, read-out: Average viability of HEK293 cells): 94.2%

Reference: patent US20170312260A1 (LAUNX BIOMEDICAL CO., LTD., priority 2014, published 2017)
